Source: ChEMBL document CHEMBL5465560, “Selectivity Literature for EUbOPEN Chemogenomic Library” (2024)

How the values were obtained:
Peregrin (Homo sapiens) = molecular target: T1, Peregrin (Homo sapiens) (UniProt P55201); assay: Selectivity interaction (Bromodomain panel (DSF asssay)) EUB0000270b BRPF1
T1 sequence (whole entry): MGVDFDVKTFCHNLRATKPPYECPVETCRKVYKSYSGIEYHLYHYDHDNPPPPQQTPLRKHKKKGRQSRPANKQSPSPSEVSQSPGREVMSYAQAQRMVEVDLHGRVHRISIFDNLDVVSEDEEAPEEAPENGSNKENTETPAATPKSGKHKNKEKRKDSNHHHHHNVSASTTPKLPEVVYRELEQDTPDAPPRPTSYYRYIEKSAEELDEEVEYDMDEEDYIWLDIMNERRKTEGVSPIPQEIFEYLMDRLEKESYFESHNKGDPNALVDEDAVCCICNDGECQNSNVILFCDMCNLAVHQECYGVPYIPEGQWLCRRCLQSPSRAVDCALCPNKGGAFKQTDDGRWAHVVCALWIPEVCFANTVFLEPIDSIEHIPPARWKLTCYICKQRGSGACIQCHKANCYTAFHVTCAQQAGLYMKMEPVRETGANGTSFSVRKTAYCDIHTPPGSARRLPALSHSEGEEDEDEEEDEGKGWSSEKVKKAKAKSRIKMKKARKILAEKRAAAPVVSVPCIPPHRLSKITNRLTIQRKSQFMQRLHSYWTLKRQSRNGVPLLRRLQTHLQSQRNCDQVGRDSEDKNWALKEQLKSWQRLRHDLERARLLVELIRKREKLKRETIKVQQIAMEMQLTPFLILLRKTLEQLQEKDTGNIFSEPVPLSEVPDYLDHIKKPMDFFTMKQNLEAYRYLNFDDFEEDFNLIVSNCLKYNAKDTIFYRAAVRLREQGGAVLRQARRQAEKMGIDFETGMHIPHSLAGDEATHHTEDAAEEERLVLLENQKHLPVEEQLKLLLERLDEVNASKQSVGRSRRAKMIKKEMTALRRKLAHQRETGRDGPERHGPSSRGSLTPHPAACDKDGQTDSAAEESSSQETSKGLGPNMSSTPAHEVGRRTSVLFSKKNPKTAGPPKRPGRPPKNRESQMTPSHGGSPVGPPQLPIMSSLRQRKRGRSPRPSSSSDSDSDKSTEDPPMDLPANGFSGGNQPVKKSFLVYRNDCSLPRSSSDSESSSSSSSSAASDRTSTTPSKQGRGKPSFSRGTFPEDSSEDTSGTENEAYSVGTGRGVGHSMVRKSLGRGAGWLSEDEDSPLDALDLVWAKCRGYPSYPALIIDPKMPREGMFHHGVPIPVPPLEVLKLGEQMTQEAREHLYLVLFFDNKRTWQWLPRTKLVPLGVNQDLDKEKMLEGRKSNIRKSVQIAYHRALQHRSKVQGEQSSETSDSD

[1] = molecular target: Myosin light chain kinase, smooth muscle (Homo sapiens, UniProt Q15746); assay: Selectivity interaction (KinomeScan (DiscoverX)) EUB0000595a MYLK; conditions: at 10 µM
Chain of Myosin light chain kinase, smooth muscle (Q15746 whole entry): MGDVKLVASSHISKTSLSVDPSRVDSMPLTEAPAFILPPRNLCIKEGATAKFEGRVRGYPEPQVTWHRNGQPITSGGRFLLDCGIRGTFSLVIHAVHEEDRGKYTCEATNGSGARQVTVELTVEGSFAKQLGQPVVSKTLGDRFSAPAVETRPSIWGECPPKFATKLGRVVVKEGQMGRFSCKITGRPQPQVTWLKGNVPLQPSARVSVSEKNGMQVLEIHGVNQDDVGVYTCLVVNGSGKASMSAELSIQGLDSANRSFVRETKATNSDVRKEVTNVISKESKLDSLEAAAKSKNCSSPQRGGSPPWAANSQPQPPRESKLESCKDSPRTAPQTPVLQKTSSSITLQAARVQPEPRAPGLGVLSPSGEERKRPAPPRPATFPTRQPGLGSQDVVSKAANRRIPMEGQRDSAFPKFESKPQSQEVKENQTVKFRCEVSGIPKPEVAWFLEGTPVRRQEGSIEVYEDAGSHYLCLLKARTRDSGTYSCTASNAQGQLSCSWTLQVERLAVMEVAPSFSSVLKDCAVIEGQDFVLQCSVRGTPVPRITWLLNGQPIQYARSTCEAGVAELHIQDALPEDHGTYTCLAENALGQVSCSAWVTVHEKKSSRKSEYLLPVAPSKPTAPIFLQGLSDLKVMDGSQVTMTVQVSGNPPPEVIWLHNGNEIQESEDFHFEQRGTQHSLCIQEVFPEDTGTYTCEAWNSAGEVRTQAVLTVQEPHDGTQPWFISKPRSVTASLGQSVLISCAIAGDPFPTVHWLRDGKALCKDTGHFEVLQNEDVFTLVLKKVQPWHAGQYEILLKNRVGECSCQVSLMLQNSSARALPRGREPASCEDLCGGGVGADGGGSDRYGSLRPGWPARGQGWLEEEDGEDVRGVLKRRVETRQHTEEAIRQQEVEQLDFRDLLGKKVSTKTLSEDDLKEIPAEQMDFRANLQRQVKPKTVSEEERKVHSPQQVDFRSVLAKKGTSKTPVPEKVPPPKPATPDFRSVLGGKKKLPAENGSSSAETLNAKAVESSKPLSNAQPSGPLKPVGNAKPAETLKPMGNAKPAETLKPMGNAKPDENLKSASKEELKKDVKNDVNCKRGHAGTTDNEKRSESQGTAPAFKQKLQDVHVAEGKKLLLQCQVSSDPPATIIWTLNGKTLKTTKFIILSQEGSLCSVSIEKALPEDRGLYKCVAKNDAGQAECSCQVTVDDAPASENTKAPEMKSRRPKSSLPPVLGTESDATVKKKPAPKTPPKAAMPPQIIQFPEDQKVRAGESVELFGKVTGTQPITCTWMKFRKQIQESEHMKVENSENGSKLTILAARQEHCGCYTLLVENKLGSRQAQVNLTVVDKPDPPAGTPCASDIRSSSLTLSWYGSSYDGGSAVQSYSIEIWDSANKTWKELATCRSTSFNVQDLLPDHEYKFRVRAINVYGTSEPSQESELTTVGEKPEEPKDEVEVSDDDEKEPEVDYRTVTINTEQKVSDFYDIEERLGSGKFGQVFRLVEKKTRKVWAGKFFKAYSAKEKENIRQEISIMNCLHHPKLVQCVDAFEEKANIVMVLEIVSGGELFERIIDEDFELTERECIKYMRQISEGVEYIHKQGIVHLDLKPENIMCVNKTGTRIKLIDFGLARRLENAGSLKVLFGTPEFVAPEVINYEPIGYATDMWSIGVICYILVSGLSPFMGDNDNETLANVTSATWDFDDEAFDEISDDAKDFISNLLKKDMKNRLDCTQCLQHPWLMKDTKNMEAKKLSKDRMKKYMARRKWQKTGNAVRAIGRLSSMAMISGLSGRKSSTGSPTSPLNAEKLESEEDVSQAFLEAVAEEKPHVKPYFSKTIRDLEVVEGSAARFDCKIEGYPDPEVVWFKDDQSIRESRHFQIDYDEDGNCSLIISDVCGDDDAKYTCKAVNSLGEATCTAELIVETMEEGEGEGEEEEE

[2] = molecular target: T2, Activin receptor type-1B (Homo sapiens) (UniProt P36896); assay: Selectivity interaction (KinomeScan (DiscoverX)) EUB0000092b ACVR1B; conditions: at 10 µM
T2 sequence (whole entry): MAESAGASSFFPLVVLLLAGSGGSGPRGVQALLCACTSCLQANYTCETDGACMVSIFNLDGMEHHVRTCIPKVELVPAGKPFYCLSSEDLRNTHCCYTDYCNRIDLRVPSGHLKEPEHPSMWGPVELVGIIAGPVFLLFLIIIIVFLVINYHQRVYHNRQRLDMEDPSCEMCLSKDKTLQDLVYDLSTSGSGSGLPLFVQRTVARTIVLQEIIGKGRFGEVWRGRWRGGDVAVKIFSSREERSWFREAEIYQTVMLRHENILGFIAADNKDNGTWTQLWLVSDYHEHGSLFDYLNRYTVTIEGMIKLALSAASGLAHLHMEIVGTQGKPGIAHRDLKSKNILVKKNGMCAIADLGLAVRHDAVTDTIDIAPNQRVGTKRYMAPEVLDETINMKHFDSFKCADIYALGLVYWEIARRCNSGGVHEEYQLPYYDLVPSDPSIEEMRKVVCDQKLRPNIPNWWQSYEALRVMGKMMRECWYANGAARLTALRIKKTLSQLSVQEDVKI

[3] = molecular target: T3, Mitogen-activated protein kinase 12 (Homo sapiens) (UniProt P53778); assay: Selectivity interaction (Ambit KINOMEscan and KiNATiv profiling in Jurkat cells) EUB0000090b MAPK12; assay type: cell-based; conditions: at 1 µM
T3 sequence (whole entry): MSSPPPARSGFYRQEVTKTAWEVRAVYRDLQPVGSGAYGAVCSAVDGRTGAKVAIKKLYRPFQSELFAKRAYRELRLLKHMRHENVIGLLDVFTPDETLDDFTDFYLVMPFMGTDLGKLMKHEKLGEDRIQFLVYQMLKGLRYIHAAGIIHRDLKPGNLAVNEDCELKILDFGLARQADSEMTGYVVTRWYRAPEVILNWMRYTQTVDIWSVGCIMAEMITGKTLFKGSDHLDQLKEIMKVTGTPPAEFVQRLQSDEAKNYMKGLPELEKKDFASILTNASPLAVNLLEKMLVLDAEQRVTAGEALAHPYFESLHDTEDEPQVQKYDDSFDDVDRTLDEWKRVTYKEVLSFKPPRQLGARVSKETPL

With `Cc1cc(CN)cc(C)c1-c1ncn(C)c1-c1cncn1C` the dTM (Peregrin (Homo sapiens)) was -1.75 K.
`COCC(=O)NC/C=C/c1ccc2ncnc(Nc3ccc(Oc4ccc(C)nc4)c(C)c3)c2c1` [CP-724714] was tested, and the % of control [1] was 100%.
`CCC(=O)N1CCN(c2ccc(-n3c(=O)ccc4cnc5ccc(-c6cnc7ccccc7c6)cc5c43)cc2C(F)(F)F)CC1` gave a % of control [2] of 45%.
With `CN(C)C/C=C/C(=O)Nc1ccc(C(=O)N2CCCC(Nc3ncc(Cl)c(-c4c[nH]c5ccccc45)n3)C2)cc1` (centres undefined) the % of control [3] was 78%.
